Measurements published in patent US20090053721A1, “VOLTAGE-GATED ION CHANNEL MUTANTS FOR USE IN IDENTIFYING ION CHANNEL MODULATING COMPOUNDS” (CARDIOME PHARMA CORP., priority 2007, published 2009).
Where “and” joins values, the source holds several entries; their conditions need not be identical. Equal values may be shown once. Where a name gives a salt, the structure may show the parent alone.

Legend:
Assay type in all cases: cell-based
[1] = target: T1, Kv1.5 WT channel (Homo sapiens, UniProt P22460); experiment: Voltage-dependence of block (Woodhull fit), wild-type Kv1.5; settings: for blocking site, electrical distance across the membrane: Woodhull fit, +10 to +60 mV; for calculated binding site within the electric field (fractional electrical distance δ): from the inside of the pore
T1 construct: subcloned as a fragment back into full-length Kv1.5; expressed in transfected cells
Protocol: (§1) Coverslips with adherent cells plated on the surface were placed in a superfusion chamber (volume 300 μl) containing the control bath solution at 22° C. Whole-cell current recording and analysis were carried out using an Axopatch 200B amplifier and pClamp10 software (Axon Instruments, CA, USA). Patch electrodes were pulled from thin-walled borosilicate glass (World Precision Instruments, FL, USA) on a horizontal micropipette puller (Sutter Instruments, CA, USA). […] Analogue capacity compensation and 80% series resistance compensation were used during whole cell measurements. Membrane potentials were not corrected for junction potentials that arise between the pipette and bath solution. For Kv1.5 current recordings, a holding potential of −80 mV was used. Data were sampled at 10-20 kHz and filtered at 5 to 10 kHz. To assess drug block, half-log escalating concentrations of drug were added to the flowing bath solution and current traces were recorded with 400 ms depolarizing pulses to +60 mV at a frequency of 0.1 Hz.
(§2) f=[D]/([D]+Kd*e^−δzFE/RT)
(§3) where F, R, z and T have their usual meanings, δ represents the fractional electrical distance, i.e., the fraction of the transmembrane electrical field sensed by a single charge at the receptor site. Kd* represents the binding affinity at the reference voltage (0 mV). The current amplitude (Idrug and Icontrol) was measured at the end of a 400 ms depolarization.
(§4) The amount of block was measured at the end of the pulse at the time indicated by the arrow on each set of data records, and, after normalization to the control, current density was plotted as a function of the depolarization potential (FIGS. 7B, 8B). Data were then fit to a standard model of drug block to obtain the electrical distance of the blocking site into the electric field from the inside of the channel (Woodhull, 1973).

[2] = target: T2, Kv1.5 I502A mutant channel (Homo sapiens, UniProt P22460, I502A); experiment: Voltage-dependence of block (Woodhull fit), I502A Kv1.5; settings: for blocking site, electrical distance across the membrane: Woodhull fit; for calculated binding site within the electric field (fractional electrical distance δ): from the inside of the pore
T2 construct: subcloned as a fragment back into full-length Kv1.5; expressed in transfected cells; host or cells: HEK293, transient transfection
Protocol: as §1, §2, §3, §4

[3] = target: T1, Kv1.5 WT channel; experiment: Whole-cell patch-clamp block of wild-type Kv1.5 current in HEK293 cells
From the text: Stable lines of HEK293 cells expressing Kv1.5, or transient transfection of mutant Kv1.5 channels were used in all experiments. Primers to generate mutant channels were synthesized by Integrated DNA Technologies, Inc. (Coralville, Iowa, USA), and mutants were generated using the Stratagene Quikchange kit (Stratagene, Calif., USA). The presence of the mutation was confirmed by DNA sequencing, and because of the size of the WT Kv1.5 clone, only the sequenced region harboring the targeted nucleotides was subcloned as a fragment back into full-length Kv1.5. Transient transfections were performed with HEK 293 cells plated at 20-30% confluency on sterile coverslips in 25 mm Petri dishes one day prior to transfection. 0.1-4 μg of ion channel DNA was incubated with 1 μg of eGFP DNA (to enable detection of transfected cells) and 2 μl of lipofectamine 2000 (Invitrogen) in 100 μl of Opti-MEM. This was added to the cells for overnight incubation after washing the media with 900 μl of MEM with 10% FBS.
The cells were grown in Minimal Essential Medium (MEM) at 37° C. in an air/5% CO2 incubator. Media contained 10% bovine serum and 0.5 mg/ml geneticin for stable lines. On the day before recording, stably-expressing cells were washed with MEM, treated with trypsin/EGTA for one minute and plated on 25 mm^2 coverslips. All cell culture supplies were obtained from Invitrogen (Mississauga, ON, Canada).
Control bath solution contained (in mM): 5 KCl, 135 NaCl, 2.8 sodium acetate, 1 MgCl2, 10 HEPES and 1 CaCl2, adjusted to pH 7.4 with NaOH. Patch pipettes contained (in mM): 130 KCl, 5 EGTA, 1 MgCl2, 10 HEPES, 4 Na2ATP, and 0.1 GTP, adjusted to pH 7.2 with KOH. All chemicals used to make solutions were obtained from Sigma-Aldrich (Mississauga, ON, Canada). […] Flecamide (Sigma-Aldrich, lot number 094K4057) was prepared as a stock solution (100 mM) in 100% DMSO. DMSO concentrations for either drug never exceeded 0.1% v/v in the final experimental solutions.
as §1, with “Membrane potentials were not corrected for junction potentials that arise between the pipette and bath solution. For Kv1.5 current recordings, a holding potential of −80 mV was used. Data were sampled at 10-20 kHz and filtered at 5 to 10 kHz.” left out, “Hz. […]” for “Hz.”

T1 sequence (P22460 whole entry, the tested form may be a part): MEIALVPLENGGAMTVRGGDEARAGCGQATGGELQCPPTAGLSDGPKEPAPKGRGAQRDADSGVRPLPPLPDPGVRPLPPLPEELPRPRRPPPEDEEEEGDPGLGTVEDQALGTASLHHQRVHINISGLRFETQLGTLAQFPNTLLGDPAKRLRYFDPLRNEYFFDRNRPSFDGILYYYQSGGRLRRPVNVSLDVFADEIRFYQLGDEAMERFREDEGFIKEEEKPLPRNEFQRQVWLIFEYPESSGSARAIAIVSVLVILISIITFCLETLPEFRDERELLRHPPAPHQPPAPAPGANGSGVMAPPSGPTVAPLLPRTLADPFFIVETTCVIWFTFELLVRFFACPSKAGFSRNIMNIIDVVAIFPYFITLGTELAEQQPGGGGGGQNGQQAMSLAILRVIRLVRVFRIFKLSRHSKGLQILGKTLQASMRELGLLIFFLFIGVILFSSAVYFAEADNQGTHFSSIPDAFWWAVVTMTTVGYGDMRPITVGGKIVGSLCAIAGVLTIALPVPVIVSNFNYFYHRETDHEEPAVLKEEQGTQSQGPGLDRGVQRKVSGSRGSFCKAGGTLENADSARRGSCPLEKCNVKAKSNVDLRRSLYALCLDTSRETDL
T2 sequence (P22460 whole entry I502A, the tested form may be a part): as the sequence (P22460 whole entry, the tested form may be a part) above, with I502A counted along it

IC50 ([3]; steady-state current, +60 mV) | SMILES | blocking site, electrical distance across the membrane [1] [%] | calculated binding site within the electric field (fractional electrical distance δ) [1] | blocking site, electrical distance across the membrane [2] [%] | calculated binding site within the electric field (fractional electrical distance δ) [2] | Hill coefficient [3] | reduction of outward current ([3]; 10 μM vernakalant) | Fractional Block ± SEM ([3]; 10 μM vernakalant, −80 to +60 mV, 400 ms, 0.1 Hz)
38.1 µM and 38 µM | O=C(NCC1CCCCN1)c1cc(OCC(F)(F)F)ccc1OCC(F)(F)F (stereo not drawn) [Flecainide] | ~17 | 0.17 | 32 | 0.32 | – | – | –
– | COc1ccc(CCO[C@@H]2CCCC[C@H]2N2CC[C@@H](O)C2)cc1OC [Vernakalant, 3-Pyrrolidinol, 1-[(1R,2R)-2-[2-(3,4-dimethoxyphenyl)ethoxy]cyclohexyl]-,hydrochloride, (3R)] | ~17 | 0.17 | ~40 | 0.39 | 1.00 | approximately 50% | 0.45 ± 0.03
